Assay results: ChEMBL document CHEMBL2074042, “beta-lactam antibiotics as substrates for OCTN2, an organic cation/carnitine transporter” (J Biol Chem, 2000)

Target: T1, Organic cation/carnitine transporter 2 (Homo sapiens, UniProt O76082)
T1 sequence (O76082 whole entry): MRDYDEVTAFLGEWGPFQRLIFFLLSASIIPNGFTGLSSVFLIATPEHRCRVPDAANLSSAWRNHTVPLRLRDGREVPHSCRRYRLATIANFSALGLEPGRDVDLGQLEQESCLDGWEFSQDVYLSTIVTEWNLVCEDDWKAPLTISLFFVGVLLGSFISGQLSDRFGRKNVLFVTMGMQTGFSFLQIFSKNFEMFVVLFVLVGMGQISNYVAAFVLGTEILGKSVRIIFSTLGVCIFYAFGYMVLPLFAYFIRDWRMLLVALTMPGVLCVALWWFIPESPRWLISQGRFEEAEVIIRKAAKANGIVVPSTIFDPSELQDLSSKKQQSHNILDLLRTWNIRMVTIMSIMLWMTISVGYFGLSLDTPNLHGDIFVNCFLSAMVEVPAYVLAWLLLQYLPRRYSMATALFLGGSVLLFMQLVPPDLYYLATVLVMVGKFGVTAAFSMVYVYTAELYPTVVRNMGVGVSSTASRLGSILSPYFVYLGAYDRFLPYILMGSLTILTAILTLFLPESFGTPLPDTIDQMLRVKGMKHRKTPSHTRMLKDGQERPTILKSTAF
Test: TP_TRANSPORTER: inhibition of Carnitine uptake (Carnitine: 0.02 uM, PCG: 2500 uM) in OCTN2-expressing HeLa cells
Assay type: functional, cell-based

CC1(C)S[C@@H]2[C@H](NC(=O)Cc3ccccc3)C(=O)N2[C@H]1C(=O)O [PENICILLIN G]
Activity: is not an inhibitor [-]
